Test results from publication doi:10.1101/2025.08.13.670122v1 (bioRxiv, 2025).
Peptide text beside a SMILES is read from it.

Assays:
[1] = target: T1, AT1R (Homo sapiens, UniProt P30556); test: Gαq activation BRET (GABY sensor) in HEK293 cells expressing AT1R; format: cell-based; set-up: expressed in transfected cells; host or cells: HEK293 cells, transient PEI transfection; conditions: for Emax Gαq (% AngII): HEK293/AT1R, GABY BRET sensor, response of the ligand at 10 μM, normalised to AngII; for EC50: HEK293 cells transiently expressing human AT1R, Gαq-RlucII/Gβ1/Gγ1-GFP10 (GABY) BRET sensor, BRET read 10 min after ligand, mean ± SEM of at least three to five independent experiments
T1 sequence (P30556 1-359): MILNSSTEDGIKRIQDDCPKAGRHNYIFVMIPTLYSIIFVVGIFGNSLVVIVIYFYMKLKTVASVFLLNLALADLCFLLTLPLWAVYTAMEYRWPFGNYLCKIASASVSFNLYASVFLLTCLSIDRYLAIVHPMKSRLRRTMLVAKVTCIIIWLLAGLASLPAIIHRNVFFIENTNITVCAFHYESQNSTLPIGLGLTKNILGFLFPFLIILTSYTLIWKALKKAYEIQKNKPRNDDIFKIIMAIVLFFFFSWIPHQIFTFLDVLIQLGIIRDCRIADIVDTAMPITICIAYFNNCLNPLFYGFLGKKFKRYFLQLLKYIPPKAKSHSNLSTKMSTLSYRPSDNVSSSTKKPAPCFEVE
Source text: (§1) We utilized a clonal cell line HEK293, referred to hereafter as HEK293 cells, which has been previously described.[7],[8] As a gracious gift from A. Inoue (Tohoku University, Sendai, Miyagi, Japan), CRISPR Gαq/11 and Gα12/13 knockout cell lines (ΔGq/11 and ΔG12/13, respectively), were derived as previously explained.[48] In brief, a CRISPR-Cas9 system was used to target either GNAQ and GNA11 or GNA12 and GNA13 genes in HEK293T cells simultaneously to generate the Gαq/11 and Gα12/13 knockout cell lines. For the production of adenovirus, we utilized HEK293A cells. All cells were grown in DMEM supplemented with 10% FBS and Penicillin-Streptomycin-L-Glutamine (10000 IU penicillin, 10000 µg/mL Streptomycin, 200 mM L-Glutamine) at 37°C in T175 flasks under a 5% CO2 humidified chamber. Periodic testing was carried out for mycoplasma contamination (ABM™, Mycoplasma PCR Detection kit). For all biosensors used, cells underwent transfection with the PEI reagent, employing a PEI:DNA ratio of 3:1. For the Gαq biosensor, HEK293 cells were transfected with the plasmids coding for Gαq-RLucII (120 ng), Gβ1 (3000 ng), Gγ1-GFP10 (3000 ng), human AT1 (3000 ng) and Salmon sperm DNA (SSD) (880 ng). For the β-arrestin2 recruitment assay, HEK293 cells were transfected with the plasmids coding for 120 ng β-arrestin-2-RLucII, 3000 ng AT1, 3000 ng rGFP-CAAX, and 3880 ng SSD. For the measurement of PKC, HEK293 cells were transfected with 3000 ng AT1, 600 ng PKC-c1b, and 6400 ng SSD. […] 100 µL of the cell/DNA mixture was added to white 96-well plates and incubated at 37°C at 5% CO2 for 48 h. For the Rho assay, ΔG12/13 cells were seeded at a density of 9,000 cells per well in poly-ornithine-coated white 96-well plates and transfected the following day. In brief, 1 μg of total DNA in 100 μL of PBS was mixed with 100 μL of PBS containing 3 μL of 1 mg/mL PEI. For Rho signaling, 150 ng of AT1R DNA with 25 ng of PKN-RBD-RlucII [8], and 100 ng of rGFP-CAAX were used. Empty pcDNA was used to reach 1 µg of the total DNA amount in 100 μL of PBS. The DNA was then mixed with 100 μL of PBS containing 3 μL of 1 mg/mL PEI. After a 20-min incubation, the DNA/PEI complexes were dispensed into cells in 96-well plates (15 µL/well), and the experiment was carried out 48 h post-transfection.
(§2) On the day of the experiment, each well was washed with 80 µL of Tyrode’s buffer (140 mM NaCl, 2.7 mM KCl, 1 mM CaCl2, 12 mM NaHCO3, 5.6 mM D-glucose, 0.5 mM MgCl2, 0.37 mM NaH2PO4, 25 mM Hepes (pH 7.4)). This was followed by incubation for 1 h in Tyrode’s buffer at room temperature. For the Gαq, β-arrestin-2, and PKC biosensors used in HEK293 cells, coelenterazine 400A (at a final concentration of 5 μM) was added 10 min before stimulation. Cells were then stimulated with increasing doses of the indicated ligand, and BRET signals were measured using a Tristar2 (Berthold) microplate reader 10 min later. For the PKC and Rho biosensors in VSMCs, and the Rho biosensor in ΔG12/13 cells, cells were similarly stimulated with ligands for 1 min, 1 min 30 s, and 3 min, respectively, before BRET measurement. […] BRET signals were then measured using a Synergy2 (BioTek) microplate reader. The applied filter set was 410/80 nm and 515/30 nm, designed to detect the light emissions of RlucII (Renilla luciferase) (donor) and rGFP (acceptor), respectively.

[2] = target: T1, AT1R; test: β-arrestin2 recruitment BRET (β-arrestin2-RLucII/rGFP-CAAX) in HEK293 cells expressing AT1R; format: cell-based; set-up: expressed in transfected cells; host or cells: HEK293 cells, transient PEI transfection; conditions: for Emax βarr2 (% AngII): HEK293/AT1R, β-arrestin2 BRET, response of the ligand at 10 μM, normalised to AngII; for EC50: HEK293 cells transiently expressing AT1R, β-arrestin2-RLucII/rGFP-CAAX BRET, read 10 min after ligand, mean ± SEM of at least three to five independent experiments, SEM, read-out: EC50 βarr2
Source text: as §1, §2

Structure (SMILES)	Emax Gαq (% AngII) [1] [% AngII]	EC50 ([1]; SEM) [nM]	Emax βarr2 (% AngII) [2] [% AngII]	EC50 [2] [nM]	EC50 [1] [nM]
CC[C@H](C)[C@H](NC(=O)[C@H](Cc1ccc(O)cc1)NC(=O)[C@@H](NC(=O)[C@H](CCCNC(=N)N)NC(=O)[C@@H](N)CC(=O)O)C(C)C)C(=O)N[C@@H](Cc1c[nH]cn1)C(=O)N1CCC[C@H]1C(=O)N[C@@H](Cc1cccc2ccccc12)C(=O)O [compound 8]	61	8.3 ± 5.1	101	2.1 ± 0.4	
CC[C@H](C)[C@H](NC(=O)[C@H](Cc1ccc(O)cc1)NC(=O)[C@@H](NC(=O)[C@H](CCCNC(=N)N)NC(=O)[C@@H](N)CC(=O)O)C(C)C)C(=O)N[C@@H](Cc1c[nH]cn1)C(=O)N1CCC[C@H]1C(=O)N[C@@H](Cc1ccc(O)cc1)C(=O)O [24c] (H-DRVYIHPY-OH)	89		105		
CC[C@H](C)[C@H](NC(=O)[C@H](Cc1ccc(O)cc1)NC(=O)[C@@H](NC(=O)[C@H](CCCNC(=N)N)NC(=O)[C@@H](N)CC(=O)O)C(C)C)C(=O)N[C@@H](Cc1c[nH]cn1)C(=O)N1CCC[C@H]1C(=O)N[C@@H](Cc1cscn1)C(=O)O [compound 20]	29	14 ± 13	97	1.9 ± 0.3	
CC[C@H](C)[C@H](NC(=O)[C@H](Cc1ccc(O)cc1)NC(=O)[C@@H](NC(=O)[C@H](CCCNC(=N)N)NC(=O)[C@@H](N)CC(=O)O)C(C)C)C(=O)N[C@@H](Cc1c[nH]cn1)C(=O)N1CCC[C@H]1C(=O)N[C@@H](CCC(N)=O)C(=O)O [compound 7] (H-DRVYIHPQ-OH; N-terminus assumed)			56	158 ± 20	> 10000
CC[C@H](C)[C@H](NC(=O)[C@H](Cc1ccc(O)cc1)NC(=O)[C@@H](NC(=O)[C@H](CCCNC(=N)N)NC(=O)[C@@H](N)CC(=O)O)C(C)C)C(=O)N[C@@H](Cc1c[nH]cn1)C(=O)N1CCC[C@H]1C(=O)N[C@@H](Cc1cccc(O)c1)C(=O)O [24b]	49	4.6 ± 3	93	2.8 ± 0.6	
CC[C@H](C)[C@H](NC(=O)[C@H](Cc1ccc(O)cc1)NC(=O)[C@@H](NC(=O)[C@H](CCCNC(=N)N)NC(=O)[C@@H](N)CC(=O)O)C(C)C)C(=O)N[C@@H](Cc1c[nH]cn1)C(=O)N1CCC[C@H]1C(=O)N[C@@H](CCCN)C(=O)O [compound 5]			45	4560 ± 3880	> 10000
CC[C@H](C)[C@H](NC(=O)[C@H](Cc1ccc(O)cc1)NC(=O)[C@@H](NC(=O)[C@H](CCCN=C(N)N)NC(=O)[C@@H](N)CC(=O)O)C(C)C)C(=O)N[C@@H](Cc1c[nH]cn1)C(=O)N1CCC[C@H]1C(=O)N[C@@H](Cc1c[nH]c2ccccc12)C(=O)O [compound 21] (H-DRVYIHPW-OH)		4.7 ± 1.1		2.2 ± 0.4	
CC[C@H](C)[C@H](NC(=O)[C@H](Cc1ccc(O)cc1)NC(=O)[C@@H](NC(=O)[C@H](CCCNC(=N)N)NC(=O)[C@@H](N)CC(=O)O)C(C)C)C(=O)N[C@@H](Cc1c[nH]cn1)C(=O)N1CCC[C@H]1C(=O)N[C@H](C(=O)O)C(C)(C)C [compound 3]	19	0.36 ± 0.84	81	2.3 ± 0.4	
CC[C@H](C)[C@H](NC(=O)[C@H](Cc1ccc(O)cc1)NC(=O)[C@@H](NC(=O)[C@H](CCCNC(=N)N)NC(=O)[C@@H](N)CC(=O)O)C(C)C)C(=O)N[C@@H](Cc1c[nH]cn1)C(=O)N1CCC[C@H]1C(=O)N[C@@H](CCC(=O)O)C(=O)O [compound 6] (H-DRVYIHPE-OH; N-terminus assumed)			63	957 ± 111	> 10000
CC[C@H](C)[C@H](NC(=O)[C@H](Cc1ccc(O)cc1)NC(=O)[C@@H](NC(=O)[C@H](CCCNC(=N)N)NC(=O)[C@@H](N)CC(=O)O)C(C)C)C(=O)N[C@@H](Cc1c[nH]cn1)C(=O)N1CCC[C@H]1C(=O)N[C@H](C(=O)O)C(c1ccccc1)c1ccccc1 [compound 15]	99	7.9 ± 1.7	109	6.7 ± 0.8	
CC[C@H](C)[C@H](NC(=O)[C@H](Cc1ccc(O)cc1)NC(=O)[C@@H](NC(=O)[C@H](CCCNC(=N)N)NC(=O)[C@@H](N)CC(=O)O)C(C)C)C(=O)N[C@@H](Cc1c[nH]cn1)C(=O)N1CCC[C@H]1C(=O)N[C@@H](Cc1ccccn1)C(=O)O [compound 19]	48	6.9 ± 2.6	101	2.2 ± 0.4	
CC[C@H](C)[C@H](NC(=O)[C@H](Cc1ccc(O)cc1)NC(=O)[C@@H](NC(=O)[C@H](CCCNC(=N)N)NC(=O)[C@@H](N)CC(=O)O)C(C)C)C(=O)N[C@@H](Cc1c[nH]cn1)C(=O)N1CCC[C@H]1C(=O)N[C@@H](COCc1ccccc1)C(=O)O [compound 16]	26	2.3 ± 4	87	3 ± 0.5	> 10000
CC[C@H](C)[C@H](NC(=O)[C@H](Cc1ccc(O)cc1)NC(=O)[C@@H](NC(=O)[C@H](CCCN=C(N)N)NC(=O)[C@@H](N)CC(=O)O)C(C)C)C(=O)N[C@@H](Cc1c[nH]cn1)C(=O)N1CCC[C@H]1C(=O)N[C@@H](Cc1ccc(O)cc1)C(=O)O [24c] (H-DRVYIHPY-OH)		4.2 ± 1.3		2.6 ± 0.8	
CC[C@H](C)[C@H](NC(=O)[C@H](Cc1ccc(O)cc1)NC(=O)[C@@H](NC(=O)[C@H](CCCNC(=N)N)NC(=O)[C@@H](N)CC(=O)O)C(C)C)C(=O)N[C@@H](Cc1c[nH]cn1)C(=O)N1CCC[C@H]1C(=O)N[C@@H](Cc1ccc(-c2ccccc2)cc1)C(=O)O [compound 13]	45	16 ± 12	98	15 ± 4	
